Measured values as given in patent US20250304526A1, “HIGH AND MULTIPLE REDOX POTENTIAL, STABLE, AND SOLUBLE BIS-DIARYLAMINE DERIVATIVES AND USES THEREOF” (University of Kentucky Research Foundation, priority 2024, published 2025).
In brackets after ≈: the same amount, converted by molar mass. Where two headings read alike, the source gives them in different places.

Assays:
[1] = Solubility determination in pure acetonitrile by mass measurement; type: physicochemical
Method: The solubility of the compounds in pure acetonitrile was determined by the mass measurement method described previously. Saturated solutions of each compound were prepared and filtered to remove any undissolved material. Afterwards, 3 mL of each solution were taken and added to previously weighed vials (the measurement was repeated three times for each solution, i.e. 3 vials for each solution). The vials were then stored open in a nitrogen-filled glove box to allow the slow evaporation of the solvent. After 10 days, acetonitrile was evaporated from all vials, leaving only the previously dissolved solid. The vials were then re-weighed and the mass of the solid was determined by subtracting the mass of the respective empty vial. The concentration of the compound was calculated from the mass of the dissolved solid and the volume of the sample placed into the vial.
The solubilities of 1-4 were examined in pure CH3CN using the mass measurement method.

[2] = Cyclic voltammetry (redox potentials, diffusion coefficients); type: physicochemical; conditions: for Redox peak of radical cation formation (first oxidation potential): 1 mM, 0.1 M TBAPF6 in CH3CN, glassy carbon; for Kc (comproportionation constant): calculated from ΔE at 298 K
Method: CV measurements were carried out in a nitrogen-filled glovebox at ambient glovebox temperature using a VSP-300 potentiostat (BioLogic). Unless otherwise indicated, the CVs were recorded in 0.2 M TBAPF6/CH3CN as electrolyte with 3 mm diameter glassy carbon (CH Instruments, Inc.) as the working electrode. A non-aqueous Ag/Ag^+ (silver wire immersed in CH3CN containing 0.1 M TBABF4 and 0.01 M AgBF4) electrode was used as the reference electrode, and a Pt wire (CH Instruments, Inc.) as the counter electrode. Before each measurement, glassy carbon electrodes were mechanically polished with an aqueous slurry of graded alumina (0.05 μm), then ultra-sonicated in water then acetone for 1 min each. Voltammograms were recorded at a scan rate of 100 mV·s^−1. Ferrocene was used as an internal reference and the oxidation potentials were calibrated with respect to ferrocene/ferrocenium (Cp2Fe^0/+) redox couple. The diffusion coefficients were determined using Randles-Sevick equation: […]
with R being the perfect gas constant (8.314 J·mol^−1·K^−1), F the Faraday's constant (96485 C·mol^−1), T the absolute temperature (˜298 K), ip is the peak current intensity (in A), n the number of transferred electrons, A the area of the electrode (cm^2), D the diffusion coefficient (cm^2·s^−1), v the scan rate (V·s^−1) and c the concentration (mol·cm^−3). Data obtained from voltammograms at scan rates of 25, 50, 75, 100, 200, 300 and 400 mV·s^−1 were used for the calculation of diffusion coefficients.
Electrochemical characterization of 1-4 was achieved by cyclic voltammetry (CV) in 0.1 M TBAPF6 in CH3CN. Glassy carbon was used as the working electrode and 1 mM of active materials were used. All derivatives featured two distinct one-electron oxidation waves upon voltage sweep. The first and the second waves correspond to the sequential neutral to radical-cation and radical-cation to dication transformations, respectively. These features are in line with the presence of two redox centers in these molecules. The redox peaks associated with the radical cation formation for molecules 1 and 2 are centered at 0 and 0.17 V vs Fc^+/Fc, respectively (FIG. 4). These values are in line with the data reported in literature for the same molecules.^8 Note that in previous literature the electrochemistry is reported in 0.1 M TBAClO4 in dichloromethane and reported versus a Ag/AgCl reference electrode. The Fc^+/Fc couple has a redox potential at 0.403 V vs SCE and 0.44 V vs Ag/AgCl reference electrode. On the other hand, molecules 3 and 4 feature the radical cation transformation redox peaks at 0.41 and 0.53 V vs Fc^+/Fc, respectively (FIG. 4).
In fact, these molecules belong to a class of compounds known as mixed-valence (MV) compounds. Mixed valency is a term that refers to a chemical species, whether organic or inorganic, with two or more redox centers that have different oxidation stated. This concept was first introduced in 1915 by Hofmann and Hoeschele. MV species are usually intensely colored due to the unique electronic transitions associated with intervalence electron transfer. CV is a useful technique in studying MV species since it provides insights on how stable one ionic species will be with respect to disproportionation, using the comproportionation constant (Kc). Kc is used to measure the ease of isolating the radical-cation rather than obtaining a mixture of neutral, radical-cationic, and dicationic species. Kc can be calculated from the ΔE which is the value of the redox potential difference between the first and the second oxidation events. Kc is a quantity used to evaluate the electronic communication between two redox centers in mixed-valence species. Large comproportionation constant, i.e. a substantial value of ΔE, is a crucial requirement for the isolation of mixed-valence species separately of other oxidation states of the species. Kc is defined as: […]

[3] = organic solvent or mixture, thermodynamic from solid, read-out: Solubility

solubility [1] [mM] | solubility [1, 3] [mM] | Redox peak of radical cation formation (first oxidation potential) [2] [V vs Fc^+/Fc] | Kc (comproportionation constant) [2] | Compound
8.76 (≈ 4670 µg/mL) | 9 (≈ 4790 µg/mL) | 0 | 3 × 10^6 | COc1ccc(N(c2ccc(OC)cc2)c2ccc(N(c3ccc(OC)cc3)c3ccc(OC)cc3)cc2)cc1 [1^+⋅]
 | 3.5 (≈ 2130 µg/mL) | 0.17 | 5 × 10^2 | COc1ccc(N(c2ccc(OC)cc2)c2ccc(-c3ccc(N(c4ccc(OC)cc4)c4ccc(OC)cc4)cc3)cc2)cc1 [2^+⋅]
13.34 (≈ 9880 µg/mL) | 13 (≈ 9630 µg/mL) | 0.41 | 3 × 10^8 | Cc1ccc(C(F)(F)F)cc1N(c1ccc(N(c2cc(C(F)(F)F)ccc2C)c2cc(C(F)(F)F)ccc2C)cc1)c1cc(C(F)(F)F)ccc1C [3^+⋅]
 | 13 (≈ 10600 µg/mL) | 0.53 | 5 × 10^2 | Cc1ccc(C(F)(F)F)cc1N(c1ccc(-c2ccc(N(c3cc(C(F)(F)F)ccc3C)c3cc(C(F)(F)F)ccc3C)cc2)cc1)c1cc(C(F)(F)F)ccc1C [4^+⋅]
